Assays:
[1] = biological target: T1, PI3Kα (wild-type), P110/P85α (Homo sapiens, UniProt P42336); experiment: PI3 Kinase TR-FRET assay, PI3Kα (wild-type); assay type: biochemical
T1 construct: made in house; host or cells: SF9 insect cells
How it was run: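 TR-FRET read-out of PIP3 formation via biotin-PIP3 displacement (665/615 nm ratio) gave IC50 curves. Enzyme: 5 ng wild-type P110/P85α from Sf9 cells, 60 min RT with compound and PIP2 (MgCl2 40 mM, DTT 5 mM), then 30 min RT kinase reaction at 10 μM ATP and 10 μM PIP2.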

[2] = biological target: T2, mTOR kinase (Homo sapiens, UniProt P42345); experiment: mTOR kinase TR-FRET assay; assay type: biochemical; details: read-out: mTO R
T2 construct: purchased Millipore, USA
How it was run: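 TR-FRET read-out (340 nm excitation, 615/665 nm emission) of Thr389 phosphorylation of a ULight-labeled p70 S6K peptide (50 nM) by mTOR, 20 μM ATP, 60 min room temperature after 60 min compound preincubation. Buffer HEPES pH 7.5 with MnCl2, EGTA; IC50 by sigmoidal dose-response.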

[3] = test system: pAKT(5473) (phosphorylated at serine 473), PC3 cells; experiment: In-cell Western assay, pAKT(5473) in PC3 cells; assay type: cell-based; details: Homo sapiens, PC-3, In-cell Western, read-out: pAkt-S473
Protocol: (§1) Cells from human prostate cancer cell line PC3 (American Type Culture Collection (ATCC), Manassas, Va. 20108 USA) were seeded at an optimal density of 22,000 cell/well in 96-well plates containing Ham's F12K medium (90 μL) and incubated overnight. The compound dilutions were carried out in 100% DMSO followed by a dilution in the medium. Test compounds were added in serial dilutions to the wells and incubated for 2 h. The cells were washed and fixed with 4% paraformaldehyde. After incubation at room temperature for 1 h in the dark, blocking was done for 2 h at room temperature. Primary antibodies for phosphorylated (p) AKT(5473) (phosphorylated at serine 473), pAKT(T308) (phosphorylated at threonine 308) and for pS6RP(S235/236) (phosphorylated at serine 235/236) (commercially available from Cell Signaling Technology®, whose protocol was followed for the in-cell western assay, were diluted to the required concentration and added to the corresponding wells followed by overnight incubation at 4° C. Eu-labeled rabbit (PE) (Perkin-Elmer USA catalog #AD0106) secondary antibody was added and incubated for 2 h at room temperature. Delfia® enhancement solution (cat #1244-105, Perkin Elmer USA) was subsequently added to the plate before taking the reading at 615 nm with excitation wavelength of 340 nm, after which 0.5 μg/mL of Hoechst® 33258 dye (Catalog #86140-5, Sigma) was added to the plate and fluorescence emission was read at 460 nm with 355 nm excitation, to evaluate the correction factor. IC50 values were calculated using a sigmoidal dose-response curve fit in GraphPad Prism® v5 software.

[4] = test system: pS6RP(S235/236), PC3 cells; experiment: In-cell Western assay, pS6RP(S235/236) in PC3 cells; assay type: cell-based, human; details: Homo sapiens, PC-3, In-cell Western
How it was run: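 Overnight-seeded PC3 cells were treated 2 h with serially diluted compound, then fixed and immunostained with phospho-specific primary antibodies and Eu-labelled secondary. Time-resolved Eu signal read at 615 nm (ex 340 nm), normalised by Hoechst 33258 staining (ex 355/em 460 nm); IC50 from sigmoidal dose-response fit.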

[5] = test system: PC3 cells; experiment: XTT assay for cell viability, PC3 cells; assay type: cell-based, human; details: Homo sapiens, PC-3, cell viability
How it was run: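 PC3 cells seeded at 1000 cells/well, grown 24 h, then exposed to serial dilutions of compound for 96 h. Viability read by XTT dye at 37° C, absorbance 465 nm. EC50 from sigmoidal dose-response fit.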

[6] = test system: pAKT(T308) (phosphorylated at threonine 308), PC3 cells; experiment: In-cell Western assay, pAKT(T308) in PC3 cells; assay type: cell-based; details: Homo sapiens, PC-3, In-cell Western
Protocol: as §1

T1 sequence (P42336 whole entry): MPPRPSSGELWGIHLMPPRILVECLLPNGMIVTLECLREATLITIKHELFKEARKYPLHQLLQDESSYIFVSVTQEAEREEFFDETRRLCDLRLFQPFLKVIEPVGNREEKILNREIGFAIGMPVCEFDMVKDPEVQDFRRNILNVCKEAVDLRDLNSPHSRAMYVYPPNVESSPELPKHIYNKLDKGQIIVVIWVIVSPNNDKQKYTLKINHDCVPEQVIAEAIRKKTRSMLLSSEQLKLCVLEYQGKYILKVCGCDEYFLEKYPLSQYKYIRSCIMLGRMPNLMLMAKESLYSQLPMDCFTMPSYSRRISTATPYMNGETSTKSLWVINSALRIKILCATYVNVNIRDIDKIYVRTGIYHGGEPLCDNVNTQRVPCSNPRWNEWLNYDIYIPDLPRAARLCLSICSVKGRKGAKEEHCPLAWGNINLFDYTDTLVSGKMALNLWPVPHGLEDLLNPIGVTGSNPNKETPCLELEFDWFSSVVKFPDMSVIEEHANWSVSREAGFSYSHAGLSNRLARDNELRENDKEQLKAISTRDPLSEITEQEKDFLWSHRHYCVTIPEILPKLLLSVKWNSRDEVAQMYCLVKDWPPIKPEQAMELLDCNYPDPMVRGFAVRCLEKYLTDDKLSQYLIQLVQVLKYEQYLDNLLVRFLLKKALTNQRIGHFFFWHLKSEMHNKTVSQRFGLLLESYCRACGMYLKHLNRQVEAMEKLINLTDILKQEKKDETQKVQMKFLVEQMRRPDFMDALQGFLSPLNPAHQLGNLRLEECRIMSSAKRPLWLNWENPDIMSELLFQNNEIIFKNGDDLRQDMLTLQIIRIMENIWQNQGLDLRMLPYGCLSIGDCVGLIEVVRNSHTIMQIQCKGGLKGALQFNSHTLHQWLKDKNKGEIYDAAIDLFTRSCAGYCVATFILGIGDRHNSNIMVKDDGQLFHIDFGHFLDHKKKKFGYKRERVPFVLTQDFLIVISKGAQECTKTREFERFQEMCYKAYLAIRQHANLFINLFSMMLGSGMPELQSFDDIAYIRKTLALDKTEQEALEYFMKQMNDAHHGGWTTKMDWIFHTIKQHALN
T1 sequence (P27986 whole entry partner): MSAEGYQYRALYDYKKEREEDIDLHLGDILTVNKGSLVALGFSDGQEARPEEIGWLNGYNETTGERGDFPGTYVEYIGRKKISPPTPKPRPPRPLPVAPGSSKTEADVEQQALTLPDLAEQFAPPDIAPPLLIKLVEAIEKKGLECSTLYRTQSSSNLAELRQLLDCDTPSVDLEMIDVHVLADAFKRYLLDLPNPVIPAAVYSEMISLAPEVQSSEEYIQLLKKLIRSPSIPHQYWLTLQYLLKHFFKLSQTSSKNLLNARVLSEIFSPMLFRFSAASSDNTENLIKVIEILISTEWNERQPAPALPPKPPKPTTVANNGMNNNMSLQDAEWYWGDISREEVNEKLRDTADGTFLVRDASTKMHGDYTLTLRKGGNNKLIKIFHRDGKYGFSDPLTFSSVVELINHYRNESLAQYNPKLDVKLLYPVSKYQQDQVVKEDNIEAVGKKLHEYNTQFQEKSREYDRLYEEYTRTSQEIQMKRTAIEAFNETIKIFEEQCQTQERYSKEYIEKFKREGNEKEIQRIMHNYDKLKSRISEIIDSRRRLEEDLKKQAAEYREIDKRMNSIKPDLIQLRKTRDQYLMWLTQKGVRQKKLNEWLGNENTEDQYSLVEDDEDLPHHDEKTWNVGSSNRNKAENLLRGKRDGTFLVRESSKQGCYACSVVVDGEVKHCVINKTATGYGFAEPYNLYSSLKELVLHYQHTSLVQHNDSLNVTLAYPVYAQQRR

| Compound | IC50 [1] [µM] | IC50 [2] [µM] | IC50 [3] [µM] | IC50 [4] [µM] | IC50 [5] [µM] | IC50 [6] [µM] |
| --- | --- | --- | --- | --- | --- | --- |
| CN(C)C(=O)c1ccc(NC(=O)Nc2ccc(-c3nc(N4CCOCC4)c4ccc(-c5cccc(S(C)(=O)=O)c5)cc4n3)cc2F)cc1 [Example 118, 4-(3-(2-fluoro-4-(7-(3-(methylsulfonyl)phenyl)-4-morpholino-quinazolin-2-yl)phenyl)ureido)-N,N-dimethyl-benzamide] | < 0.05 | < 0.05 | 0.501 to 5 | 0.201 to 10 | 0.201 to 10 | – |
| CN(C)C(=O)c1ccc(NC(=O)Nc2ccc(-c3nc(N4CCOCC4)c4ccc(-c5ccccn5)cc4n3)cc2)cc1 [Example 155, N,N-dimethyl-4-(3-(4-(4-morpholino-7-(pyridin-2-yl)quinazolin-2-yl)phenyl)ureido)-benzamide] | < 0.05 | < 0.05 | < 0.1 | – | 0.201 to 10 | – |
| CN(C)C(=O)c1ccc(NC(=O)Nc2ccc(-c3nc(N4CCOCC4)c4ccc(-c5ccco5)cc4n3)cn2)cc1 [Example 159, 4-(3-(5-(7-(furan-2-yl)-4-morpholino-quinazolin-2-yl)pyridin-2-yl)ureido)-N,N-dimethyl-benzamide] | < 0.05 | 0.201 to 10 | < 0.1 | – | < 0.1 | – |
| CN(C)C(=O)c1ccc(NC(=O)Nc2ccc(-c3nc(N4CCOCC4)c4ccc(-c5ccco5)cc4n3)cc2)c(F)c1 [Example 160, 3-fluoro-4-(3-(4-(7-(furan-2-yl)-4-morpholino-quinazolin-2-yl)phenyl)ureido)-N,N-dimethyl-benzamide] | < 0.05 | 0.05 to 0.2 | 0.501 to 5 | – | < 0.1 | – |
| CC(=O)c1ccc(-c2ccc3c(N4CCOCC4)nc(-c4ccc(NC(=O)Nc5ccc(C(=O)N(C)C)cc5)cc4)nc3c2)o1 [Example 224, 4-(3-(4-(7-(5-acetylfuran-2-yl)-4-morpholino-quinazolin-2-yl)phenyl)ureido)-N,N-dimethyl-benzamide] | < 0.05 | < 0.05 | – | 0.201 to 10 | 0.201 to 10 | – |
| CN(C)C(=O)c1ccc(NC(=O)Nc2ccc(-c3nc(N4CCOCC4)c4ccc(-c5cncnc5)cc4n3)c(F)c2)cc1 [Example 237, 4-(3-(3-fluoro-4-(4-morpholino-7-(pyrimidin-5-yl)quinazolin-2-yl)phenyl)ureido)-N,N-dimethyl-benzamide] | < 0.05 | < 0.05 | – | 0.201 to 10 | 0.201 to 10 | – |
| CN(C)C(=O)c1ccc(NC(=O)Nc2ccc(-c3nc(N4CCOCC4)c4ncc(-c5cnn(C)c5)cc4n3)c(F)c2)cc1 [Example 238, 4-(3-(3-fluoro-4-(7-(1-methyl-1H-pyrazol-4-yl)-4-morpholino-pyrido[3,2-d]pyrimidin-2-yl)phenyl)ureido)-N,N-dimethyl-benzamide] | < 0.05 | < 0.05 | – | 0.201 to 10 | 0.201 to 10 | – |
| CN(C)C(=O)c1ccc(NC(=O)Nc2ccc(-c3nc(N4CCOCC4)c4ccc(-c5cccnc5F)cc4n3)c(F)c2)cc1 [Example 241, 4-(3-(3-fluoro-4-(7-(2-fluoropyridin-3-yl)-4-morpholino-quinazolin-2-yl)phenyl)ureido)-N,N-dimethyl-benzamide] | < 0.05 | 0.05 to 0.2 | – | 0.201 to 10 | 0.201 to 10 | – |
| COc1ncc(-c2ccc3c(N4CCOCC4)nc(-c4ccc(NC(=O)Nc5ccc(C(=O)N(C)C)cc5)cc4F)nc3c2)cn1 [Example 242, 4-(3-(3-fluoro-4-(7-(2-methoxypyrimidin-5-yl)-4-morpholino-quinazolin-2-yl)phenyl)ureido)-N,N-dimethyl-benzamide] | < 0.05 | < 0.05 | – | 0.201 to 10 | 0.201 to 10 | – |
| CN(C)C(=O)c1ccc(NC(=O)Nc2ccc(-c3nc(N4CCOCC4)c4ccc(-c5cccnc5)cc4n3)c(F)c2)cc1 [Example 243, 4-(3-(3-fluoro-4-(4-morpholino-7-(pyridin-3-yl)quinazolin-2-yl)phenyl)ureido)-N,N-dimethyl-benzamide] | < 0.05 | < 0.05 | – | 0.201 to 10 | 0.201 to 10 | – |
| CN(C)C(=O)c1ccc(NC(=O)Nc2ccc(-c3nc(N4CCOCC4)c4ncc(-c5cccnc5F)cc4n3)c(F)c2)cc1 [Example 244, 4-(3-(3-fluoro-4-(7-(2-fluoropyridin-3-yl)-4-morpholino-pyrido[3,2-d]pyrimidin-2-yl)phenyl)ureido)-N,N-dimethyl-benzamide] | < 0.05 | < 0.05 | – | 0.201 to 10 | 0.201 to 10 | – |
| Cc1noc(C)c1-c1ccc2c(N3CCOCC3)nc(-c3ccc(NC(=O)Nc4ccc(C(=O)N(C)C)c(F)c4)cc3)nc2c1 [Example 246, 4-(3-(4-(7-(3,5-dimethylisoxazol-4-yl)-4-morpholino-quinazolin-2-yl)phenyl)ureido)-2-fluoro-N,N-dimethyl-benzamide] | 0.05 to 0.2 | < 0.05 | – | 0.201 to 10 | 0.201 to 10 | – |
| CN(C)C(=O)c1ccc(NC(=O)Nc2ccc(-c3nc(N4CCOCC4)c4ccc(-c5ccco5)cc4n3)c(F)c2)cc1 [Example 247, 4-(3-(3-fluoro-4-(7-(furan-2-yl)-4-morpholino-quinazolin-2-yl)phenyl)ureido)-N,N-dimethyl-benzamide] | 0.05 to 0.2 | 0.05 to 0.2 | – | 0.201 to 10 | 0.201 to 10 | – |
| CN(C)C(=O)c1ccc(NC(=O)Nc2ccc(-c3nc(N4CCOCC4)c4ccc(-c5ccccn5)cc4n3)cc2)cc1F [Example 267, 2-fluoro-N,N-dimethyl-4-(3-(4-(4-morpholino-7-(pyridin-2-yl)quinazolin-2-yl)phenyl)ureido)-benzamide] | < 0.05 | < 0.05 | 0.501 to 5 | – | 0.201 to 10 | – |
| CN(C)C(=O)c1ccc(NC(=O)Nc2ccc(-c3nc(N4CCOCC4)c4ccc(-c5ccccn5)cc4n3)c(F)c2)cc1 [Example 268, 4-(3-(3-fluoro-4-(4-morpholino-7-(pyridin-2-yl)quinazolin-2-yl)phenyl)ureido)-N,N-dimethyl-benzamide] | < 0.05 | < 0.05 | 0.501 to 5 | – | 0.201 to 10 | – |
| CN(C)C(=O)c1ccc(NC(=O)Nc2ccc(-c3nc(N4CCOCC4)c4ccc(-c5cccnc5NCCO)cc4n3)cc2)cc1 [Example 283, 4-(3-(4-(7-(2-((2-hydroxyethyl)amino)pyridin-3-yl)-4-morpholine-quinazolin-2-yl)phenyl)ureido)-N,N-dimethyl-benzamide] | 0.201 to 10 | 0.05 to 0.2 | – | 0.201 to 10 | 0.201 to 10 | – |
| CN(C)C(=O)c1ccc(NC(=O)Nc2ccc(-c3nc(N4CCOCC4)c4ccc(CO)cc4n3)cc2)cc1 [Example 285, 4-(3-(4-(7-(hydroxymethyl)-4-morpholino-quinazolin-2-yl)phenyl)ureido)-N,N-dimethyl-benzamide] | < 0.05 | < 0.05 | – | 0.201 to 10 | < 0.1 | – |
| CN(C)C1CCN(C(=O)c2ccc(NC(=O)Nc3ccc(-c4nc(N5CCOCC5)c5ccc(C(C)(C)O)cc5n4)cc3)cc2)CC1 [Example 286, 1-(4-(4-(dimethylamino)piperidine-1-carbonyl)phenyl)-3-(4-(7-(2-hydroxypropan-2-yl)-4-morpholino-quinazolin-2-yl)phenyl)urea] | < 0.05 | < 0.05 | – | 0.201 to 10 | 0.201 to 10 | – |
| CC(=O)Nc1ccc(NC(=O)Nc2ccc(-c3nc(N4CCOCC4)c4ccc(-c5cncnc5)cc4n3)cc2)cc1 [Example 291, N-(4-(3-(4-(4-morpholino-7-(pyrimidin-5-yl)quinazolin-2-yl)phenyl)ureido)phenyl)-acetamide] | < 0.05 | < 0.05 | – | 0.1 to 0.5 | 0.1 to 0.5 | 0.501 to 5 |

From patent US9115092B2, “Substituted quinazoline and pyrido-pyrimidine derivatives” (Asana Biosciences, LLC, priority 2010, dated 2015)
